# According to patent US20240016781A1, “TREATMENT OF KRAS MUTANT CANCERS” (MEI Pharma, Inc., priority 2020, published 2024):
# Where two headings read alike, the source gives them in different places.
# Legend:
# Assay in all cases: 72-hour CellTiter-Glo 2.0 growth inhibition screen (single agent, 9x9 combination dose matrix);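 for Best CI Level: inhibition effect level at which the best CI was calculated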
# Assay type in all cases: cell-based
# [1] = system: HCC44;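 for Best CI Level: inhibition effect level at which the best CI was calculated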
# [2] = system: KYSE-410;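 for Best CI Level: inhibition effect level at which the best CI was calculated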
# [3] = system: NCI-H358;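 for Best CI Level: inhibition effect level at which the best CI was calculated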
# [4] = system: SW48;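 for Best CI Level: inhibition effect level at which the best CI was calculated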
# [5] = system: SW837;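 for Best CI Level: inhibition effect level at which the best CI was calculated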
# [6] = HCC44 (KRAS G12C), enhancer + MEI-522 (Voruciclib), 72 h;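 for Best CI Level: inhibition effect level at which the best CI was calculated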
# [7] = HCC44, Lung, Additional Single Agent Responses (inhibition, % I), 72 h
# [8] = HCC44, Lung, growth inhibition (GI), AUC, single agent, 72 h
# [9] = enhancer combined with MEI-522 (Voruciclib), HCC44 (Lung), 72 hours, inhibition data
# [10] = KYSE-410 (KRAS G12C), enhancer + MEI-522 (Voruciclib), 72 h;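 for Best CI Level: inhibition effect level at which the best CI was calculated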
# [11] = KYSE-410, Esophageal, Additional Single Agent Responses (inhibition, % I), 72 h
# [12] = KYSE-410, Esophageal, growth inhibition (GI), AUC, single agent, 72 h
# [13] = enhancer combined with MEI-522 (Voruciclib), KYSE-410 (Esophageal), 72 hours, inhibition data
# [14] = NCl-H358 (KRAS G12C), enhancer + MEI-522 (Voruciclib), 72 h
# [15] = NCl-H358, Lung, Additional Single Agent Responses (inhibition, % I), 72 h
# [16] = NCl-H358, Lung, growth inhibition (GI), AUC, single agent, 72 h
# [17] = enhancer combined with MEI-522 (Voruciclib), NCl-H358 (Lung), 72 hours, inhibition data
# [18] = SW48 (KRAS WT), enhancer + MEI-522 (Voruciclib), 72 h;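 for Best CI Level: inhibition effect level at which the best CI was calculated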
# [19] = SW48, Colorectal, Additional Single Agent Responses (inhibition, % I), 72 h
# [20] = SW48, Colorectal, growth inhibition (GI), AUC, single agent, 72 h
# [21] = enhancer combined with MEI-522 (Voruciclib), SW48 (Colorectal), 72 hours, inhibition data
# [22] = SW837 (KRAS G12C), enhancer + MEI-522 (Voruciclib), 72 h;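 for Best CI Level: inhibition effect level at which the best CI was calculated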
# [23] = SW837, Colorectal, Additional Single Agent Responses (inhibition, % I), 72 h
# [24] = SW837, Colorectal, growth inhibition (GI), AUC, single agent, 72 h
# [25] = enhancer combined with MEI-522 (Voruciclib), SW837 (Colorectal), 72 hours, inhibition data
# [26] = HCC44, Lung, growth inhibition (GI) curve, single agent, 72 h
# [27] = KYSE-410, Esophageal, growth inhibition (GI) curve, single agent, 72 h
# [28] = NCl-H358, Lung, growth inhibition (GI) curve, single agent, 72 h
# [29] = SW48, Colorectal, growth inhibition (GI) curve, single agent, 72 h
# [30] = SW837, Colorectal, growth inhibition (GI) curve, single agent, 72 h
smiles,measurement,setting,value
C=CC(=O)N1CCN(c2nc(=O)n(-c3c(C)ccnc3C(C)C)c3nc(-c4c(O)cccc4F)c(F)cc23)[C@@H](C)C1 [AMG510],Best CI,[1]; [6],0.63
same,Bliss Volume,[1]; [6],2.46
same,HSA volume,[1]; [6],2.64
same,Loewe Volume,[1]; [6],2.30
same,Synergy Score,[1]; [6],4.36
same,Response Area,[1]; [7],1.52
same,Response Area,[1]; [8],1.97
same,EC50,"[1]; Homo sapiens, HCC44, 72 h, HCC44, Lung, Additional Single Agent Responses (inhibition, % I), 72 h",4.1 nM
same,EC50,"[1]; Homo sapiens, HCC44, 72 h, HCC44, Lung, growth inhibition (GI) curve, single agent, 72 h",4.6 nM
same,Emax,"[1]; Homo sapiens, HCC44, Lung, Additional Single Agent Responses, 72 h, read-out: Max Response (% I)",32%
same,Emax,"[1]; Homo sapiens, HCC44, Lung, growth inhibition (GI), single agent, 72 h, read-out: Max Response (% GI)",41%
same,Best CI,[1]; [9],0.67
same,Bliss Volume,[1]; [9],−0.82
same,HSA volume,[1]; [9],1.08
same,Loewe Volume,[1]; [9],0.97
same,Synergy Score,[1]; [9],1.16
same,Best CI Level,"[1]; enhancer combined with MEI-522 (Voruciclib), HCC44 (Lung), 72 hours, inhibition data, unit assumed",45%
same,EC50,"[2]; Homo sapiens, KYSE-410, 72 h, KYSE-410, Esophageal, Additional Single Agent Responses (inhibition, % I), 72 h",5.8 nM
same,EC50,"[2]; Homo sapiens, KYSE-410, 72 h, KYSE-410, Esophageal, growth inhibition (GI) curve, single agent, 72 h",6 nM
same,Emax,"[2]; Homo sapiens, KYSE-410, Esophageal, Additional Single Agent Responses, 72 h, read-out: Max Response (% I)",20%
same,Emax,"[2]; Homo sapiens, KYSE-410, Esophageal, growth inhibition (GI), single agent, 72 h, read-out: Max Response (% GI)",24%
same,Best CI,[2]; [10],1.14
same,Bliss Volume,[2]; [10],1.47
same,HSA volume,[2]; [10],2.26
same,Loewe Volume,[2]; [10],2.48
same,Synergy Score,[2]; [10],1.71
same,Response Area,[2]; [11],0.88
same,Response Area,[2]; [12],1.06
same,Best CI,[2]; [13],1.14
same,Bliss Volume,[2]; [13],1.06
same,HSA volume,[2]; [13],1.87
same,Loewe Volume,[2]; [13],2.13
same,Synergy Score,[2]; [13],1.19
same,Best CI Level,"[2]; enhancer combined with MEI-522 (Voruciclib), KYSE-410 (Esophageal), 72 hours, inhibition data, unit assumed",45%
same,EC50,"[3]; Homo sapiens, NCI-H358, 72 h, NCl-H358, Lung, Additional Single Agent Responses (inhibition, % I), 72 h",8.5 nM
same,EC50,"[3]; Homo sapiens, NCI-H358, 72 h, NCl-H358, Lung, growth inhibition (GI) curve, single agent, 72 h",9.4 nM
same,IC50,"[3]; Homo sapiens, NCI-H358, NCl-H358, Lung, Additional Single Agent Responses (inhibition, % I), 72 h",14.2 nM
same,Emax,"[3]; Homo sapiens, NCI-H358, NCl-H358, Lung, Additional Single Agent Responses, 72 h, read-out: Max Response (% I)",79%
same,GI50,"[3]; Homo sapiens, NCI-H358, NCl-H358, Lung, growth inhibition (GI) curve, single agent, 72 h",8.8 nM
same,Emax,"[3]; Homo sapiens, NCI-H358, NCl-H358, Lung, growth inhibition (GI), single agent, 72 h, read-out: Max Response (% GI)",108%
same,Best CI,[3]; [14],0.51
same,Bliss Volume,[3]; [14],4.55
same,HSA volume,[3]; [14],2.53
same,Loewe Volume,[3]; [14],2.07
same,Synergy Score,[3]; [14],3.63
same,Response Area,[3]; [15],3.87
same,Response Area,[3]; [16],5.18
same,Best CI,[3]; [17],0.51
same,Best CI Level,[3]; [17],20
same,Bliss Volume,[3]; [17],−0.42
same,HSA volume,[3]; [17],1.90
same,Loewe Volume,[3]; [17],1.20
same,Synergy Score,[3]; [17],1.07
same,EC50,"[4]; Homo sapiens, SW48, 72 h, SW48, Colorectal, Additional Single Agent Responses (inhibition, % I), 72 h",2710 nM
same,EC50,"[4]; Homo sapiens, SW48, 72 h, SW48, Colorectal, growth inhibition (GI) curve, single agent, 72 h",2720 nM
same,Emax,"[4]; Homo sapiens, SW48, Colorectal, Additional Single Agent Responses, 72 h, read-out: Max Response (% I)",14%
same,Emax,"[4]; Homo sapiens, SW48, Colorectal, growth inhibition (GI), single agent, 72 h, read-out: Max Response (% GI)",17%
same,Best CI,[4]; [18],0.46
same,Bliss Volume,[4]; [18],2.71
same,HSA volume,[4]; [18],0.73
same,Loewe Volume,[4]; [18],2.40
same,Synergy Score,[4]; [18],4.05
same,Response Area,[4]; [19],0.48
same,Response Area,[4]; [20],0.61
same,Best CI,[4]; [21],0.50
same,Bliss Volume,[4]; [21],1.20
same,HSA volume,[4]; [21],0.35
same,Loewe Volume,[4]; [21],1.24
same,Synergy Score,[4]; [21],1.36
same,Best CI Level,"[4]; enhancer combined with MEI-522 (Voruciclib), SW48 (Colorectal), 72 hours, inhibition data, unit assumed",35%
same,EC50,"[5]; Homo sapiens, SW837, 72 h, SW837, Colorectal, Additional Single Agent Responses (inhibition, % I), 72 h",9.9 nM
same,EC50,"[5]; Homo sapiens, SW837, 72 h, SW837, Colorectal, growth inhibition (GI) curve, single agent, 72 h",10.4 nM
same,Emax,"[5]; Homo sapiens, SW837, Colorectal, Additional Single Agent Responses, 72 h, read-out: Max Response (% I)",37%
same,GI50,"[5]; Homo sapiens, SW837, Colorectal, growth inhibition (GI) curve, single agent, 72 h",162 nM
same,Emax,"[5]; Homo sapiens, SW837, Colorectal, growth inhibition (GI), single agent, 72 h, read-out: Max Response (% GI)",56%
same,Best CI,[5]; [22],0.72
same,Bliss Volume,[5]; [22],7.24
same,HSA volume,[5]; [22],6.16
same,Loewe Volume,[5]; [22],6.02
same,Synergy Score,[5]; [22],6.03
same,Response Area,[5]; [23],1.79
same,Response Area,[5]; [24],2.67
same,Best CI,[5]; [25],0.64
same,Best CI Level,[5]; [25],65
same,Bliss Volume,[5]; [25],2.98
same,HSA volume,[5]; [25],4.27
same,Loewe Volume,[5]; [25],4.27
same,Synergy Score,[5]; [25],2.77
CN1CC[C@@H](c2c(O)cc(O)c3c(=O)cc(-c4ccc(C(F)(F)F)cc4Cl)oc23)[C@@H]1CO [MEI-522(Voruciclib)],EC50,[1]; [7],770 nM
same,IC50,[1]; [7],829 nM
same,Response Area,[1]; [7],2.85
same,Max Response (% I),"[1]; HCC44, Lung, Additional Single Agent Responses, 72 h",91 % I
same,EC50,[1]; [26],1210 nM
same,GI50,[1]; [26],730 nM
same,Response Area,[1]; [8],4.97
same,Max Response (% GI),"[1]; HCC44, Lung, growth inhibition (GI), single agent, 72 h",161 % GI
same,EC50,[2]; [11],1740 nM
same,IC50,[2]; [11],1900 nM
same,Response Area,[2]; [11],1.97
same,Max Response (% I),"[2]; KYSE-410, Esophageal, Additional Single Agent Responses, 72 h",72 % I
same,EC50,[2]; [27],1750 nM
same,GI50,[2]; [27],1800 nM
same,Response Area,[2]; [12],2.41
same,Max Response (% GI),"[2]; KYSE-410, Esophageal, growth inhibition (GI), single agent, 72 h",87 % GI
same,EC50,[3]; [15],591 nM
same,IC50,[3]; [15],628 nM
same,Response Area,[3]; [15],2.50
same,Max Response (% I),"[3]; NCl-H358, Lung, Additional Single Agent Responses, 72 h",85 % I
same,EC50,[3]; [28],598 nM
same,GI50,[3]; [28],585 nM
same,Response Area,[3]; [16],3.61
same,Max Response (% GI),"[3]; NCl-H358, Lung, growth inhibition (GI), single agent, 72 h",137 % GI
same,EC50,[4]; [19],443 nM
same,IC50,[4]; [19],526 nM
same,Response Area,[4]; [19],2.91
same,Max Response (% I),"[4]; SW48, Colorectal, Additional Single Agent Responses, 72 h",87 % I
same,EC50,[4]; [29],566 nM
same,GI50,[4]; [29],422 nM
same,Response Area,[4]; [20],4.44
same,Max Response (% GI),"[4]; SW48, Colorectal, growth inhibition (GI), single agent, 72 h",135 % GI
same,EC50,[5]; [23],1990 nM
same,IC50,[5]; [23],2090 nM
same,Response Area,[5]; [23],2.44
same,Max Response (% I),"[5]; SW837, Colorectal, Additional Single Agent Responses, 72 h",90 % I
same,EC50,[5]; [30],2100 nM
same,GI50,[5]; [30],1750 nM
same,Response Area,[5]; [24],4.48
same,Max Response (% GI),"[5]; SW837, Colorectal, growth inhibition (GI), single agent, 72 h",166 % GI
